From PMC8876959, “Comparative Evaluation of Radiochemical and Biological Properties of ^131I- and [^99mTc]Tc(CO)3-Labeled RGD Analogues Planned to Interact with the αvβ3 Integrin Expressed in Glioblastoma” (Pharmaceuticals, 2022)

Tests used:
C6 tumorigenic cells = assay: Binding and internalization in C6 tumorigenic cells; type: cell-based, rat; details: 37 °C; for Bound fraction: 2 × 10^6 cells, 10 nmol radiopeptide
Description: The C6 cells were incubated at 37 °C in a humidified atmosphere containing 5% CO2 and maintained in culture using Dulbecco’s Modified Eagle Medium (DMEM)—F12 (Gibco; Gaithersburg, MD, USA) supplemented with 10% fetal bovine serum (Sigma-Aldrich; Darmstadt, Germany) and 1% glutamine (Sigma-Aldrich; Darmstadt, Germany). Cells were grown to 75% confluence and then harvested by trypsinization (0.04% trypsin/EDTA). After centrifugation (151× g for 5 min), the cells were resuspended in DMEM—F12 to a final concentration of […] for the development of the glioblastoma animal model.
An aliquot containing 2 × 10^6 C6 cells in supplemented DMEM-F12 culture medium (450 µL) was added to a vial and incubated with 10 nmol of the radiolabeled peptide at 37 °C with gentle agitation. The studies were evaluated at 1, 4 and 24 h (n = 7 for each time point). Then, the vials were centrifuged (604× g for 5 min). The radioactivities of the pellet and supernatant were separately evaluated using an automatic Wizard 3 2480 gamma counter (Perkin Elmer; Norwalk, CT, USA). The percentage of the bound fraction was calculated by Equation (1). (1) % bound fraction=Pellet radioactivity (cpm)/Pellet radioactivity (cpm)+supernatant radioactivity (cpm)×100
In the sequence, a second radioactivity determination was performed. For that, pellets were resuspended using 0.5 mL of acid buffer (0.2 M acetic acid in 0.5 M NaCl solution; pH 2.8) and maintained at room temperature for 5 min to remove the radiolabeled molecule attached to the cell membrane surface. Then, the vials were centrifuged (1677× g for 5 min). The pellet and supernatant were separated and their radioactivities were measured using the above-mentioned automatic gamma counter. The percentage of the internalized fraction of radiopeptides was estimated based on the ratio between the activity contained in the precipitate and the supernatant and calculated by Equation (2):(2) % internalized fraction=Pellet radioactivity (cpm)/Pellet radioactivity (cpm)+supernatant radioactivity (cpm)×100

[1] = RP-HPLC retention time (used as an indication of hydrophobicity); type: physicochemical; details: C18 column, 0.1% TFA:H2O (A), 60% acetonitrile/0.1% TFA:H2O (B), 5-95% B in 30 min, 1.0 mL/min; radioactivity detector (slight delay versus UV signal)
Description: RP-HPLC analyzes were performed on a Proeminence LC-20A system (Shimadzu; Kyoto, Japan). The column selected was Vydac C18 150 × 4.6 mm, with a particle size of 5 μm, a pore size of 300 Å. Chromatograms were performed at λ = 220 nm. Peaks were eluted using solvent systems composed of 0.1% TFA:H2O as solvent A and 60% acetonitrile/0.1% TFA:H2O as solvent B, on a gradient of 5–95% of solvent B at a flow rate of 1.0 mL·min^−1 for 30 min (n = 3).
RP-HPLC analyzes were performed on a 1290 Infinity II UHPLC system (Agilent Technologies; Saint Clair, CA, USA) fitted with a radioactivity detector (Eckert & Ziegler; Berlin, Germany) and Open Lab ECM data system (Agilent Technologies; Saint Clair, CA, USA) to confirm the yield and purity of both radiolabeled peptides. Analyzes were performed using a Phenomenex C18 column (150 × […]; 5 µm particle size; 300 Å pore size), detection at λ = 220 nm, using 0.1% TFA:H2O as solvent A and 60% acetonitrile/0.1% TFA:H2O as solvent B. A gradient of 5% to 95% of solvent B in 30 min was used at a flow rate of 1.0 mL·min^−1.

[2] = Partition coefficient (n-octanol/water); type: physicochemical; details: shake-flask, n-octanol/water (1:1), vortexed, 1 h at rest, centrifuged; gamma counter; mean ± SD, n = 6 (method: n = 5)
Description: A fraction (100 μL) of the radiopeptide was added to a water/n-octanol (1:1) mixture. The mixture was vigorously vortexed and kept at rest for 1 h. Then, it was centrifuged at 1677× g for 5 min. Equal samples from both aqueous/organic phases were collected and their radioactivities were measured in an automatic Wizard 3 2480 gamma counter (Perkin Elmer; Norwalk, CT, USA) to determine log P values (n = 5).

[3] = Ex vivo biodistribution in normal (control) rats; set-up: species or system rat; details: gamma counter, mean ± SEM, n = 3
Description: Adult male Sprague Dawley rats (280–320 g) were maintained under controlled environmental conditions (12 h light-dark cycle; constant temperature 21 ± 2 °C), with free access to water and food. Tumorigenic glioblastoma cells were implanted in the right frontal cortex, following specific coordinates (referred to bregma): anteroposterior = 1.0 mm; lateral = 3.0 mm; depth = 5.0 mm. An aliquot of culture medium (10 µL) containing 1 × 10^6 C6 cells in suspension was injected slowly (1 µL/min) using a Hamilton syringe positioned on a stereotaxic surgery frame. In the control group, only the culture medium, without cells, was injected. An interval of 20 days after cell inoculation was allowed for tumor development.
The ex vivo biodistribution of each radiolabeled peptide (4 MBq; 0.2 mL) was evaluated at 15, 60, and 240 min after IV injection in control and tumor-bearing animals (n = 3 per group, per time point). The molar activities in this study were 0.68 and 16.2 MBq/nmol for the iodine and tricarbonyl-labeled peptides, respectively. Animals were deeply anesthetized and sacrificed at the corresponding biodistribution time point. Brain, spleen, heart, stomach, liver, lungs, kidneys, and blood were collected and weighed. Then, their radioactivities were determined using the above-mentioned automatic gamma counter. The radioactivity of each organ/tissue was evaluated as the percentage of injected dose per gram of organ/tissue (% ID/g), using the same injected dose activity as a standard.

Substance: [^99mTc]Tc(CO)3-GRGDHV
- Bound fraction (C6 tumorigenic cells; 1 h, n = 7): ~ 22%
- Bound fraction (C6 tumorigenic cells; 4 h, mean ± SD, n = 7): 23.47% ± 1.78
- Bound fraction (C6 tumorigenic cells; 24 h, n = 7): ~ 8%
- Internalized fraction (C6 tumorigenic cells; 1 h, acid buffer wash pH 2.8, n = 7): ~ 34%
- Internalized fraction (C6 tumorigenic cells; 4 h, acid buffer wash pH 2.8, mean ± SD, n = 7): 54.24% ± 3.99
- Internalized fraction (C6 tumorigenic cells; 24 h, acid buffer wash pH 2.8, n = 7): ~ 74%
- RP-HPLC retention time (Rt), radiolabeled peptide [1]: 17.80 min
- Log P [2]: −1.13 ± 0.14
- Ex vivo biodistribution, Blood ([3]; 15 min after IV injection): 11.30 ± 0.84 %ID/g
- Ex vivo biodistribution, Blood ([3]; 60 min after IV injection): 9.78 ± 0.52 %ID/g
- Ex vivo biodistribution, Blood ([3]; 240 min after IV injection): 11.12 ± 1.27 %ID/g
- Ex vivo biodistribution, Brain ([3]; 15 min after IV injection): 0.32 ± 0.01 %ID/g
- Ex vivo biodistribution, Brain ([3]; 60 min after IV injection): 0.28 ± 0.03 %ID/g
- Ex vivo biodistribution, Brain ([3]; 240 min after IV injection): 0.60 ± 0.04 %ID/g
- Ex vivo biodistribution, Heart ([3]; 15 min after IV injection): 5.14 ± 0.12 %ID/g
- Ex vivo biodistribution, Heart ([3]; 60 min after IV injection): 4.41 ± 0.23 %ID/g
- Ex vivo biodistribution, Heart ([3]; 240 min after IV injection): 4.84 ± 0.37 %ID/g
- Ex vivo biodistribution, Kidneys ([3]; 15 min after IV injection): 62.73 ± 2.17 %ID/g
- Ex vivo biodistribution, Kidneys ([3]; 60 min after IV injection): 51.04 ± 1.49 %ID/g
- Ex vivo biodistribution, Kidneys ([3]; 240 min after IV injection): 40.17 ± 0.90 %ID/g
- Ex vivo biodistribution, Liver ([3]; 15 min after IV injection): 6.06 ± 0.79 %ID/g
- Ex vivo biodistribution, Liver ([3]; 60 min after IV injection): 9.55 ± 1.34 %ID/g
- Ex vivo biodistribution, Liver ([3]; 240 min after IV injection): 12.26 ± 1.34 %ID/g
- Ex vivo biodistribution, Lungs ([3]; 15 min after IV injection): 7.76 ± 0.75 %ID/g
- Ex vivo biodistribution, Lungs ([3]; 60 min after IV injection): 9.25 ± 1.65 %ID/g
- Ex vivo biodistribution, Lungs ([3]; 240 min after IV injection): 8.59 ± 0.64 %ID/g
- Ex vivo biodistribution, Spleen ([3]; 15 min after IV injection): 3.41 ± 0.41 %ID/g
- Ex vivo biodistribution, Spleen ([3]; 60 min after IV injection): 3.69 ± 0.60 %ID/g
- Ex vivo biodistribution, Spleen ([3]; 240 min after IV injection): 4.93 ± 0.45 %ID/g
- Ex vivo biodistribution, Stomach ([3]; 15 min after IV injection): 3.09 ± 0.77 %ID/g
- Ex vivo biodistribution, Stomach ([3]; 60 min after IV injection): 10.27 ± 0.59 %ID/g
- Ex vivo biodistribution, Stomach ([3]; 240 min after IV injection): 10.78 ± 3.11 %ID/g
